Laboratory results as given in US8852876B2, “Label free biosensors and cells” (Corning Incorporated, priority 2008, dated 2014).

Legend:
[1] = system: protease activated receptors PAR1 and PAR2; experiment: Fluo-3 Ca2+ mobilization assay with PAR agonists; type: cell-based, human; conditions: for Concentration required to induce a maximal response: [Ca2+]i; for Effect of preceding stimulation on trypsin-induced [Ca2+]i elevation: 200 nM trypsin; for Maximal [Ca2+]i elevation / EC50: quiescent A431, Fluo-3; for EC50: read-out: EC50 of [Ca2+]i increase
Procedure: A431 at passage 3 to 5 were grown in Costar™ 96 well clear cell culture microplates until ˜95% confluency, washed twice and starved overnight with the DMEM only, washed with 1×HBSS (1× regular Hank's balanced salt solution, 20 mM HEPES buffer, pH 7.0) in the presence of 2.5 mM probenicid, and labeled in the same buffer containing 4 μM Fluo-3 for 1 hour at room temperature. The cells were then washed twice with buffer, maintained with 100 μl 1×HBSS containing 2.5 mM probenicid. The assay was initiated by transferring 50 μl PAR agonist solution to the cell plate, and calcium signal was recorded over 6 minutes with a 6 sec interval using HTS7000 BioAssay Reader (PerkinElmer Life Science, Boston, Mass.). The assays were carried out at room temperature in order to allow direct comparison with optical sensing data.

[2] = system: protease activated receptors PAR1 and PAR2; type: cell-based, human
Procedure: (§1) Human epidermoid carcinoma A431 cells (American Type Cell Culture) were grown in Dulbecco's modified Eagle's medium (DMEM) supplemented with 10% fetal bovine serum (FBS), 4.5 g/liter glucose, 2 mM glutamine, and antibiotics. ˜3-7.5×10^4 cells at passage 3 to 5 suspended in 200 μl the DMEM medium containing 10% FBS were placed in each well of a 96 well microplate, and were cultured at 37° C. under air/5% CO2 until ˜95% confluency was reached (˜2-4 days).
(§2) The compound or PAR agonist solutions were made in 1×HBSS in order to match the refractive index between the cell medium and compound solution, thus minimizing the unwanted effect of bulk index change due to the introduction of compound solution which can temporarily overwhelms any DMR signal as it occurs.

[3] = molecular target: T1, protease activated receptors PAR1 and PAR2 (Homo sapiens, UniProt P25116); type: cell-based
T1 construct: A431 cells which endogenously express PAR1 and PAR2; endogenous in cells; host or cells: A431
T1 sequence (P25116 22-425): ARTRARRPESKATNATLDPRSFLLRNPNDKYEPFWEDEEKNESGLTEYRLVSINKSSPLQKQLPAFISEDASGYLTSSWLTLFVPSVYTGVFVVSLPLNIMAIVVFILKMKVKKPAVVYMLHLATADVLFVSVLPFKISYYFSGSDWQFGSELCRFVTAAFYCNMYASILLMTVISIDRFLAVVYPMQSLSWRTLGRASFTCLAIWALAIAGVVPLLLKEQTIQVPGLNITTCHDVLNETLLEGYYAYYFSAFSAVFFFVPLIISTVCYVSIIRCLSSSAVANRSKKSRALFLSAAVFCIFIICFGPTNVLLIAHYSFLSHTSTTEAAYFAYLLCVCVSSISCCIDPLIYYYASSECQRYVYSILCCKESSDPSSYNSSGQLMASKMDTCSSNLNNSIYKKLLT
Procedure: as §1, §2

[4] = molecular target: T2, protease activated receptors PAR1 and PAR2 (Homo sapiens, UniProt P55085); type: cell-based
T2 construct: A431 cells which endogenously express PAR1 and PAR2; endogenous in cells; host or cells: A431
T2 sequence (P55085 26-397): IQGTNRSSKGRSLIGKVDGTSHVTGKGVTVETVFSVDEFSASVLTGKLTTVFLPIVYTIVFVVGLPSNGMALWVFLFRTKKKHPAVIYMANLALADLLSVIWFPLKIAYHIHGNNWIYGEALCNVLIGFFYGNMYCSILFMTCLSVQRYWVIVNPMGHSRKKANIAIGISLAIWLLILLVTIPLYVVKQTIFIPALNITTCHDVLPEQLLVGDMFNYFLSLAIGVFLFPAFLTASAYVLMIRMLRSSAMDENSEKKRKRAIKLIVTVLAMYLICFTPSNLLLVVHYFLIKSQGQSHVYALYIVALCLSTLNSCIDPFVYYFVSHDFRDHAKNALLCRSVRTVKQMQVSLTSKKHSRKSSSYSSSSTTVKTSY
Procedure: as §1, §2

A431 cells = experiment: Cell adhesion and spreading on RWG biosensor; type: cell-based, human; conditions: 100 nM; 5% FBS; room temperature
Excerpt: The adhesion and spreading of cells at surfaces were well studied using optical imaging techniques, as well as optical biosensors such as SPR and RWG. […] Subsequently, attached cells undergo morphological changes known as spreading—a process that the cells increase their area in contact with the surface. Both attachment and spreading are dependent on the nature of the surface and of the medium in which the cells are suspended. Since cell adhesion and spreading obviously leads to both vertical and horizontal mass redistribution within the sensing volume, we first characterized the adhesion and spreading of A431 cells in 5% FBS in the absence and presence of vincristine. Vincristine is a plant alkaoid that inhibits microtubule assembly by binding to tubulin.
We studied the adhesion and spreading of A431 cells in 5% FBS in the absence and presence of vincristine at room temperature (25° C.). […] Following the addition of cell solution, there is an immediate and rapid increased signal, which is probably resulted from three events: the increased bulk index from the addition of the cell solution, the immobilization of serum proteins onto the sensor surface, and the sedimentation of cells and subsequent contact of cells with the surface. Afterwards, a prolonged increased signal occurred, indicating the slow process of cell spreading. Ultimately a saturated level was reached. […]

[5] = system: endogenous GPCRs in A431 cells; experiment: DMR optical biosensor profiling of GPCR agonists; type: cell-based, human; conditions: quiescent A431; first class = Gq-type, second = Gs-type, third = Gi-type, fourth = no significant DMR
Procedure: Human epidermoid carcinoma A431 cells (American Type Cell Culture) were grown in Dulbecco's modified Eagle's medium (DMEM) supplemented with 10% fetal bovine serum (FBS), 4.5 g/liter glucose, 2 mM glutamine, and antibiotics. ˜3-7.5×10^4 cells at passage 3 to 5 suspended in 200 μl the DMEM medium containing 10% FBS were placed in each well of a 96 well microplate. Similarly ˜1-2×10^4 cells in 50 μl the growth medium were placed in each well of a 384 well microplate. After cell seeding, the cells were cultured at 37° C. under air/5% CO2 until ˜95% confluency was reached (˜2-4 days).
A Corning® Epic™ angular interrogation system with transverse magnetic or p-polarized TM0 mode was used for all studies. Several extra actions were taken to minimize the unwanted effects. First, to minimize the bulk index changes when a compound solution is introduced, 1×HBSS buffer without any probenecid was used to dilute all the compounds, whereas the DMEM buffer only was used to starve the cells. Secondly, to facilitate the cell responses as well as to rapidly reach a steady state when the sensor plates having cells were placed in the system at room temperature, the cells were pre-starved with the DMEM buffer without any FBS for a prolonged period of time (typically 20±2 hours), and the quiescent cells were directly used for assays without any wash.
For kinetics measurements, the cultured cells (˜95% confluency) were starved for about 20 hours with DMEM alone at 37° C. under air/5% CO2. Afterwards, the sensor microplate containing cells was placed into the optical system, and the cell responses were recorded before and after addition of a solution at room temperature. […] All studies were carried out at room temperature with the lid of the microplate on except for a short period of time (˜seconds) when the solution was introduced, in order to minimize the effect of temperature fluctuation and evaporative cooling. The unit of the responses indicated herein was a change in pixel of the central position of the resonant band of each sensor as imaged by a CCD camera; 1 unit equals to ˜5.82×10^−4 refractive index changes, based on an experimental normalization protocol, which uses the concentration-dependent responses of both glycerol and dimethyl sulfoxide.
The panel of agonists were used individually to stimulate quiescent A431 cells. The dose-dependent and kinetic responses were recorded and analyzed. In a typical kinetic measurement, the angular shift of resonant lights of each sensor induced by an agonist is monitored in real time and plotted as a function of time. An increased signal (P-DMR) means an increase in the amount of bio-molecules within the sensing volume (˜120 nm); conversely, a decreased signal (N-DMR) means a decrease in the amount of bio-molecules within the sensing volume. The sensing volume, also known as penetration depth, is an intrinsic property of the coupled light within the waveguide film, which creates an evanescent wave extending into the cell layer and the medium.

quiescent A431 cells = experiment: mβCD-induced response (cholesterol effluxing) on LID sensor; type: cell-based, human; conditions: 20 nM EGF or 1000 nM H7; pretreated at least 40 minutes
Excerpt: The disclosed methods can be used to assay cholesterol transport and to, for example, screen for molecules that effect cholesterol transport, such as effluxing and uptake. […] This method is based on the measurement in real time of the effect of compounds on cholesterol effluxing. Depletion of cholesterol content on cell surface or intracellular pool results in the disappearance of microvilli located in the cell surface, resulting in the flatness of cells adherent on a surface. The flatness of cells leads to a positive DMR phase with increased signal. Based on this biological effect, we use reagents, as markers, that can either extract cholesterol from the cell surface (e.g., methyl-beta-cyclodextrin (mβCD), or high density lipoproteins (HDLs)), or bind or sequester cholesterol on the cell surface (e.g., saponin at relatively low concentrations). The changes obtained using optical biosensors can be used as an indicator of modulators that interfere with the cholesterol effuxing. FIG. 27 provides a schematic of a cholesterol pathway.

[6] = system: actin filaments in A431 cells; experiment: Texas Red-phalloidin fluorescence imaging; type: cell-based, human; conditions: 100 nM trypsin or 40 unit/ml thrombin; ~95% confluency
Procedure: Cells were grown on Corning® Epic™ 96 well biosensor microplates, starved for overnight with serum-free DMEM medium, chased with either trypsin or thrombin for certain time, fixed with 4% paraformaldehyde, permeabilized in phosphate-buffered saline (PBS) containing 0.2% Triton, and blocked with 1% bovine serum albumin (BSA). Afterwards, cells were incubated with 0.5 μM Texas Red-labeled phalloidin for 1 h at room temperature, and washed. After final washes and mounting, cells were examined with a 40× objective, equipped in a Zeiss Axioplan fluorescence microscope.

Compound | Concentration required to induce a maximal response [1] [µM] | Effect of preceding stimulation on trypsin-induced [Ca2+]i elevation ([1]; interval 6 min) | Maximal [Ca2+]i elevation [1] [%] | EC50 [1] [nM] | Effect of preceding stimulation on trypsin-induced DMR signal ([2]; interval about 1 hour) | DMR signal after preceding stimulation with thrombin [4] | Class of optical signature (DMR) induced by agonist [5] | other results
YFLLRNP [PAR1 specific partial agonist] | – | – | – | – | – | – | – | [Ca2+]i elevation by compound alone ([1]; concentrations up to 160 μM): did not induce any significantly elevation of [Ca^2+]i; [Ca2+]i elevation mediated by 200 nM trypsin after pretreatment ([1]; pretreatment with 80 μM, n=5): 48.3±4.5%; Effect of pretreatment on trypsin-mediated DMR signal ([2]; 100 or 200 nM trypsin, modulators 10 μM): only partially attenuated both SFFLR-amide and trypsin-mediated DMR; Effect of pretreatment on SFFLR-amide-mediated DMR ([2]; SFFLR-amide 20 μM, highest dose examined): only partially attenuated both SFFLR-amide and trypsin-mediated DMR; DMR signal stimulated by compound alone [3]: only at high doses stimulated significant DMR signals; Effect of pretreatment on PAR2-AP GLIGKV-mediated DMR signal ([4]; SLIGKV-amide 20 μM): no obvious effect on the PAR2-AP GLIGKV-mediated DMR signal
CC[C@]1(O)C[C@H]2CN(CCc3c([nH]c4ccccc34)[C@@](C(=O)OC)(c3cc4c(cc3OC)N(C=O)[C@H]3[C@@](O)(C(=O)OC)[C@H](OC(C)=O)[C@]5(CC)C=CCN6CC[C@]43[C@@H]65)C2)C1 [vincristine] | – | – | – | – | – | – | – | Effect on cell adhesion and spreading signatures (A431 cells): suppressed not only both the initial and total responses, but also reduced the kinetics of cell spreading; Reduction of total change in incident angle vs absence of compound (A431 cells): about 20%
SLIGKV [SLIGKV-amide, PAR2-AP] | 20 | significantly attenuated but not completely eliminates the trypsin-induced [Ca^2+]i elevation | 52±6.3 | 3800 ± 400 | significantly suppresses but not completely eliminates the trypsin-induced DMR signal | induced the DMR signal similar to that obtained without the preceding stimulation | first class of optical signatures | [Ca2+]i elevation after preceding stimulation with thrombin ([1]; thrombin 40 unit/ml first, interval 6 min): 48.5±3.8%
SLIGLR [SLIGLR-amide, PAR2-AP] | 20 | significantly attenuated but not completely eliminates the trypsin-induced [Ca^2+]i elevation | 64±3.7 | 2500 ± 300 | significantly suppresses but not completely eliminates the trypsin-induced DMR signal | induced the DMR signal similar to that obtained without the preceding stimulation | first class of optical signatures | –
CC1CNCCN1S(=O)(=O)c1cccc2cnccc12 (stereo not shown) [H7] | – | – | – | – | – | – | – | Effect of pretreatment on mβCD-induced response (quiescent A431 cells): led to the suppression of the mβCD-induced response
trypsin | 0.4 | – | 100±6.3 | 45.7 ± 5.8 | – | – | first class of optical signatures | Effect of preceding stimulation on [Ca2+]i elevation by subsequent PAR agonists ([1]; then 40 unit/ml thrombin, 20 μM SFFLR-amide, GLIGKV-amide, GLIGLR-amide or 200 nM trypsin, interval 6 min): induced almost no [Ca^2+]i elevation; Maximal [Ca2+]i elevation relative to thrombin ([1]; trypsin vs thrombin): approximately 2 fold; Effect of preceding stimulation on DMR signal induced by PAR-APs ([2]; SFFLR-amide, GLIGKV-amide, GLIGLR-amide, interval about 1 hour): significantly suppressed the DMR signal induced by either of three PAR-APs; Effect of preceding stimulation on DMR signal induced by trypsin or thrombin ([2]; interval about 1 hour): completely eliminated the DMR signal induced by either trypsin (data not shown) or thrombin; Effect of pretreatment on DMR mediated by bradykinin ([2]; interval about 1 hour): little effect on the DMR mediated by bradykinin; Reorganization of actin filaments [6]: triggered significant cytoskeletal reorganization after about 10 min
